Entries after “also recorded” stand apart in the source; their conditions may differ. Bridges are numbered along the chain shown (N, C = ends). Where no end group is shown, it is not given here.
Legend:
C57BL6J male mice = test: Indirect calorimetry and telemetry in mice after injection into the preoptic area; format: in vivo, mouse; conditions: 2.5 nmol by direct injection into the POA
Method: C57BL6J male mice (3-4 months old, 25-30 g, 6 mice per group) were purchased from Harlan. […] Energy expenditure measures (VO2, VCO2 and heat formation ((3.815+1.232*RER)*VO2 (in liters)) were corrected for estimated effective metabolic mass per Kleiber's power function (Kleiber, 1947). Mice undergoing indirect calorimetry were acclimated to the respiratory chambers for 3-4 days before the onset of study. Data were recorded under ambient room temperature clamped at 25° C., beginning from the onset of the light cycle (12:12 hour light-dark cycle; lights on at 6:00 a.m.) for 3 days. Treatments were administered directly to the POA via an implanted cannula (anterior from bregma: 0.3 mm, midline, ventral: 3.8 mm, cannula 26 GA, 10 mm length) using an injector (33 GA, protruding 0.4 mm beyond the tip of the cannula, total length 10.4 mm) connected to plastic tubing and a microsyringe (10 μL) in a volume of 0.5 μL over a period of 5 minutes to allow diffusion. […]

DIO mice = test: Glucose tolerance (IPGTT) in DIO mice; format: in vivo, mouse; conditions: for decrease of glucose excursion: 2 g/kg glucose challenge i.p., mean±SEM n=8
Method: DIO mice fed on a high fat diet for 14 weeks and ob/ob mice were purchased from Jackson Labs. Ob/Ob mice and DIO mice used in all studies were used at 7 and 18 weeks old, respectively. After an overnight fast, ob/ob and DIO mice were injected with vehicle (20 mM Na acetate/140 mM NaCl) or EDN3 97-140 (0.1, 1 or 10 mg/kg i.p.) followed by a […] (i.p.) or 2 g/kg (i.p.) D-glucose challenge in ob/ob and DIO mice respectively. Plasma glucose levels were determined from mouse tail vein bleeds at 0, 15, 30, 60, and 120 minutes after compound injection and measured using an automatic glucometer (Alpha-Trak). To determine the acute insulin release, plasma insulin levels were measured by using an ELISA kit with mouse insulin as a standard (Meso Scale Discovery). Results were expressed as percentages of vehicle concentrations and statistical significance determined by 2-way ANOVA repeated measures.

H4IIE rat hepatoma cells = test: H4IIE glucose production in vitro; format: cell-based; conditions: 100 nM, 24 hours, mean of 3 independent experiments±SEM, p=0.01
Method: Cell culture reagents were purchased from Invitrogen (Gathersburg, Md.) unless otherwise noted. GLUTag cells were obtained from Dr. Daniel Drucker and cultured in High Glucose DMEM medium supplemented with 100 U/mL penicillin, 100 μg/mL streptomycin, and 10% fetal calf serum at 10% CO2 at 37° C. H4IIE rat hepatoma cells were purchase from American Type Culture Collection (Manassas, Va.) and cultured in low glucose DMEM supplemented with 100 U/mL penicillin, 100 μg/mL streptomycin, 2 mM L-glutamine and 10% heat-inactivated fetal calf serum at 5% CO2 and 37° C.
H4IIE cells were plated at 120,000 cells per well into 96-well Poly-D-Lysine coated plates and treated using a modification of the protocol as previously reported (de Raemy-Schenk, 2006). Briefly, 4 hours after plating, growth medium was exchanged for glucose production medium (glucose-free DMEM, 2 mM sodium pyruvate, and 20 mM sodium lactate) for 18 hours and then cells were treated with EDN3 97-140 or vehicle in fresh glucose production medium. After 24 hours, media was collected and assayed for glucose using an Amplex Red Glucose/Glucose Oxidase Assay Kit purchased from Invitrogen (Gathersburg, Md.). Data was reported as a percent of vehicle to normalize across experiments. […]

INS1 cells = test: Glucose-stimulated insulin release from INS1 cells; format: cell-based; conditions: 10 μM (data not shown)
Insulin tolerance test = format: in vivo; conditions: 1 and 10 mg/kg i.p., acute administration (data not shown)

## CTCFTYKDKECVYYCHLDIIWINTPEQTVPYGLSNYRESLRGKR-NH2 (disulfide 1-15, 3-11) [EDN3 97-140]
C57BL6J male mice
  locomotor activity: transient spike of increased locomotor activity; also recorded: transient increase in locomotor activity
DIO mice; DIO mice, 0.1 mg/kg i.p.
  decrease of glucose excursion: 19±7.2%
DIO mice; DIO mice, 1 mg/kg i.p.
  decrease of glucose excursion: 20.7±8.7%
DIO mice; DIO mice, i.p. (p>0.05)
  insulin during IPGTT: no statistically significant effect on insulin
DIO mice; diet induced obese mice, acute peripheral administration 0.1, 1 or 10 mg/kg i.p.
  glucose excursion curve in response to an IPGTT: decreased
H4IIE rat hepatoma cells
  reduction of basal glucose production versus vehicle: 19.5±7.6%
INS1 cells
  modulation of glucose-stimulated insulin release from INS1 cells: failed to modulate
Insulin tolerance test
  effect on insulin tolerance test: no effect

— patent US20130345392A1, “EDN3-LIKE PEPTIDES AND USES THEREOF” (Pfizer Inc, priority 2011, published 2013)
